From article PMC2744931, “Glutamate Uptake Triggers Transporter-Mediated GABA Release from Astrocytes” (PLoS ONE, 2009)

Tests used:
hippocampus = settings: cited from earlier work
[1] = test system: GABA transport in rat cerebrocortical NPMV (GAT-2/3); assay: [3H]GABA uptake in rat cerebrocortical native plasma membrane vesicles (NPMV) in the presence of 100 µM NNC-711; assay type: biochemical
Method: (§1) Cerebral cortices of 4–6 weeks old male Wistar rats (Toxicoop, Hungary) and frozen human brain tissue samples (Hungarian Brain Tissue Bank, Budapest) were used to prepare NPMV fractions, that contain numerous membrane vesicles of different sizes and shapes, a few intact synaptosomes and free mitochondria. […] Afterward, preincubated solution was incubated with [^3H]GABA (10 nM, Amersham) and GABA (90 nM, Sigma) for 1 min. In case of [^3H]β-alanine uptake, incubation solution contained 100 nM [^3H]β-alanine (Amersham) and 900 nM β-alanine (Sigma). After the incubation, samples were immediately filtered through glass fiber filters and washed twice with ice-cold HEPES buffer. The [^3H]GABA level inside the plasma membrane vesicles was determined by liquid scintillation method. Although this method is generally used to measure GABA uptake, we applied it to follow GABA release due to the simplicity and reliability of the assay. We also determined GABA release by preloading [^3H]GABA into NPMV vesicles and measuring the [^3H]GABA level in the intracellular and extracellular milieu. […] Non-specific uptake was determined in the presence of 1 mM guvacine. The radioactivity of samples was counted in HiSafe 3 (Perkin Elmer) scintillation mixture.

rat hippocampus = assay: In vivo microdialysis and HPLC amino acid detection in the hippocampus
Method: Male Wistar rats (300–400 g) were anaesthetized with halothane (1% in air) and microdialysis probes were implanted into the ventral hippocampus (A: −5.0, L: 5.0, V: −8.0) as described previously. To minimize tissue damage, the final position of the probes was reached slowly, in not less than 20 min. Perfusion of artificial cerebrospinal fluid, containing 144 mM NaCl, 3 mM KCl, 1 mM MgCl2, 2 mM CaCl2 (pH 7.4), was performed at a rate of 1 µl/min. The dialysate samples during 20 min were stored at −20°C. To establish the background amino acid concentration, each experiment started with the collection of three control samples with <10% variation. NNC-711 was applied bilaterally for 60 min followed by the simultaneous application of t-PDC and NNC-711 for 60 min. Concentration of amino acids was measured by pre-column derivatization of primary amino acids with orthophthalaldehyde (OPA, Sigma). Derivatization was performed at pH 10.4 in the presence of mercaptoethanol. OPA-derivatized amino acids were detected with fluorescence detector excitation wavelength 340 nm and emission wavelength 440 nm. Because of the instability of OPA derivatives, the HPLC technique was automated on an HP 1100 series system. Amino acids were separated on HP Hypersyl ODS reversed-phase columns (200×2.1 mm) filled with 5 µm C-18 spherical packing material. Eluent A was 0.1 M phosphate buffer containing 0.5% (vol/vol) tetrahydrofuran (Merck), pH 5.6, while eluent B contained 70% acetonitrile (Merck) in eluent A, pH 5.6. The gradient profile was: 12% B at 0 min, 23% B at 9 min, 36% B at 18 min, 100% B at 20 min, 100% B at 25 min and 12% B at 30 min. The column equilibration time was 8 min. External standards of 10 µM amino acids were injected after every 20 samples. Chromatograms were evaluated with HP Chem-Station software. Concentration of GABA measured in dialysate samples collected during drug applications were related to averaged GABA concentration of control samples collected for an hour prior to drug application and were given as percent changes.

human NPMVs = assay: [3H]GABA uptake in human brain tissue NPMVs; assay type: biochemical; settings: 100 µM NNC-711; hippocampus, cortical gray and white matter, spinal cord white matter, choroid plexus, corpus callosum
Method: as §1

rat cortex NPMVs = assay: [3H]GABA release from NPMV vesicles preloaded with [3H]GABA; assay type: biochemical; settings: 10 min incubation with Glu, n = 3
Method: as §1

rat cerebrocortical NPMV = assay: Total extracellular GABA by HPLC in rat cerebrocortical NPMV samples; assay type: biochemical; settings: 300 µM Glu, n = 3
[2] = test system: acute rat hippocampal slices; assay: [3H]GABA efflux from acute rat hippocampal slices (microvolume superfusion); assay type: cell-based
Method: Radiolabeling of 400 µm thick acute slices was conducted in 200 µl of ACSF in a glass tube. […] To preferentially label the cytosolic over the vesicular pools, incubation of slices at 30°C lasted for 10 min [54]. Slices were washed with fresh ACSF containing GABA-T inhibitors, thereafter placed in a custom-built closed micro-volume (50 µl) chamber secured in a water bath thermostated at 30°C [55]. […] The superfusate was collected in 0.5 ml fractions. After washing for 10 min, 10 fractions were collected to define the basal release of radioactivity (‘pre-stimulus’). At this point, the hippocampal slice was exposed to 100 µM Glu for a period of 10 min (‘drug application’), followed by further 10 min of washing with ACSF (‘washout’). Radioactivity of each 0.5 ml fraction counted in 3 ml HiSafe 3 scintillation mixture was expressed as the percentage of the actual radioactivity content of the slice (fractional release). Fractional release data from individual slices were normalized to a first order exponential curve (obtained by fitting the pre-stimulus and the last 3 washout values). Normalized percent efflux data from fractions of ‘pre-stimulus’ (1–10 min) versus ‘drug application’ (11–20 min) periods were averaged and compared by statistical analysis.

GAT-2/3 = assay: [3H]β-alanine uptake in rat cerebrocortical NPMV fraction; assay type: biochemical; settings: n = 3
Method: as §1

Glu decarboxylase (GAD) = assay: NMR (13C-HSQC) of [13C]GABA formation from [13C]Glu in rat cortical NPMV fraction; assay type: biochemical
Method: NPMV samples for NMR experiments were prepared as described before. NPMV fractions from the whole cortex were homogenized in 1 ml HEPES buffer containing 300 µM [^13C]Glu and were incubated at 30°C for 30 min. The homogenate was then centrifuged at 3500 g for 15 min. The supernatant (extracellular fraction) was stored and the pellet (intracellular fraction) was suspended in 1 ml HEPES buffer and frozen (−80°C) and thawed 3 times. In the NMR experiments on brain slices, 13 hippocampal slices were put in a 2 ml centrifuge tube and the ACSF was replaced with 1 ml ACSF containing 300 µM [^13C]Glu. The slices were incubated at 37°C for 30 min. Afterwards, the samples were frozen (−80°C) and thawed 3 times.
NMR experiments were carried out at 30°C on a Varian NMR SYSTEM (600 MHz for ^1H) four-channel spectrometer using a 5 mm indirect detection triple resonance (^1H^13C^15N) z-axis gradient probe. Samples (200 µl) were placed into 5 mm Shigemi NMR tubes. Gradient-enhanced ^1H/^13C heteronuclear correlation spectra (^13C-HSQC) were acquired with a ^1H spectral width of 9600 Hz and 2048 complex points, zero-filled to a total of 4096. […] Gaussian and exponential weighting functions were applied in the F2 dimension, while the indirectly detected dimensions were Gaussian weighted only. […]

GAT-3 = test system: GAT-3; parameters: method as in PMID 17408599, PMID 16274841; settings: cited from earlier work

O=C(O)[C@@H]1CN[C@@H](C(=O)O)C1 (relative stereo) [t-PDC, L-trans-pyrrolidine-2,4-dicarboxylate]
neuronal damage after in vivo administration in the hippocampus (hippocampus): did not produce cell death | neuronal damage in vivo (hippocampus; very high concentration (25–100 mM)): did not evoke neuronal damage in vivo | effect on GABA transport in rat cortical NPMV ([1]; 10 min preincubation, 100 µM NNC-711 (Figure 1B)): able to affect GABA transport | [Arginine]o in the rat hippocampus in vivo (rat hippocampus; control for non-specific release, n = 10): 94±32 % of control | [GABA]o in the rat hippocampus in vivo (rat hippocampus; microdialysis application, t-PDC applied together with NNC-711, n = 10): 233±33 % of control | inhibition of [3H]GABA uptake in human brain tissue samples (human NPMVs): able to inhibit [^3H]GABA uptake in all investigated areas

N[C@@H](CCC(=O)O)C(=O)O [Glu, L-glutamate]
IC50 (rat cortex NPMVs): 13.1 ± 1.6 µM | IC50 ([1]; 10 min preincubation, 100 µM NNC-711, rat cerebrocortical NPMV, n = 7, read-out: IC50, inhibition of [3H]GABA uptake): 11 ± 0.1 µM | inhibition of GABA uptake ([1]; preincubation of vesicles with Glu for 10 minutes, in the presence of NNC-711): 52% | increase of the extracellular GABA level (HPLC) (rat cerebrocortical NPMV; SCB-treated rats): 35±6% | increase of the extracellular GABA level (HPLC) (rat cerebrocortical NPMV; control rats): 46±3% | inhibition of [3H]GABA uptake in human brain tissue samples (human NPMVs): able to inhibit [^3H]GABA uptake in all investigated areas | elevation of [GABA]o ([3H]GABA efflux) ([2]; 100 µM Glu in low-[Ca2+]/high-[Mg2+] buffer, n = 5): 148.3±15.5 % of pre-stimulus control | elevation of [GABA]o ([3H]GABA efflux) ([2]; 100 µM Glu in the presence of glutamate receptor antagonists (DL-AP5 50 µM, CNQX 10 µM, (S)-MCPG 500 µM), n = 7): 128.5±13.4 % of pre-stimulus control | elevation of [GABA]o ([3H]GABA efflux) ([2]; 100 µM Glu, control conditions, n = 6): 149±14 % of pre-stimulus control | share of average [GABA]o increase remaining ([2]; Glu-induced release in the presence of Glu receptor antagonists): 58% | effect on cytosolic β-alanine level ([3H]β-alanine uptake) (GAT-2/3): reduce cytosolic level

NNC(N)=O [SCB, semicarbazide]
modulation of the effect of Glu on GABA transport / cytosolic GABA level in rat cortical NPMV ([1]; 100 µM NNC-711 present): did not affect [^3H]GABA release | effect on [13C]GABA formation (Glu decarboxylase (GAD); SCB treatment, rat cortical NPMV fraction): completely blocked | elevation of [GABA]o ([3H]GABA efflux) ([2]; Glu-induced release, slices of SCB-treated animals (100 mg/kg i.p., 2 mM present), n = 7): 145±14 % of pre-stimulus control

[15NH2][13C@@H]([13CH2][13CH2][13C](=O)O)[13C](=O)O [[^13C]Glu, [U-^13C/^15N]Glu]
share of extracellularly applied [13C]Glu converted to [13C]GABA and released (Glu decarboxylase (GAD); 300 µM [13C]Glu, 30 min, rat cortical NPMV): ~5%

CN1C(=O)CC(=O)N(c2ccccc2)c2cc(Cl)ccc21 [clobazam]
GAT-3 expression in the hippocampus (GAT-3): up-regulate GAT-3 expression

CC[C@@H](C(N)=O)N1CCCC1=O [levetiracetam]
GAT-3 expression in the hippocampus (GAT-3): up-regulate GAT-3 expression
